Measured values published in US5756491A, “Antiviral cobalt-organic compounds” (priority 1991, dated 1998).

Key:
[1] = test system: human foreskin fibroblast (HFF) cell monolayers; experiment: Toxicity effects controls: sham-inoculated compound-treated HFF monolayers; assay type: cell-based; on Toxicity effects: key: +: toxic; -: no toxicity; ±: mild toxicity; T: toxicity effects interfered with CPE rating
From the text: (§1) With sufficient stirring, all the compounds completely dissolved.
In the tables, the symbols have the meaning indicated: […]

HSV-1 McKrae Strain [2] = experiment: Direct virucidal efficacy against HSV-1 on HFF monolayers; assay type: cell-based; details: for effective virucidal concentration IC50 / effective virucidal concentration IC90: HSV-1
HSV-1 McKrae Strain [3] = experiment: Intracellular antiviral activity against HSV-1 in HFF monolayers; assay type: cell-based; details: for antiviral efficacy (HSV-1 titer): Experiment 7 (Table 18), 24 h PI
Procedure: HSV-1 McKrae Strain was diluted to a final concentration of 10^5 PFU/ml in minimal essential medium (MEM). Hereinafter, this dilution is referred to as the HSV-1 Suspension for convenience.
as §1
HFF cell monolayers were inoculated with the HSV-Suspension prepared as above by absorption for thirty minutes at 37° C. After absorption of the virus, the inoculum was aspirated from the cell monolayers and the HSV-1 infected monolayers were rehydrated with medium containing the appropriate concentration of the solution of the compound by adding 500 microliters of each compound concentration to triplicate HSV-1 infected monolayers. All monolayers were incubated at 37° C. The developing HSV-1 cytopathology was monitored daily for two days by inverted light microscopy and titers were calculated by multiple […] analysis. For the intracellular anti-viral activity, "cell monolayer controls" were obtained using sham inoculated non-treated HFF cell monolayers along with the drug treated monolayers. "Positive controls" were obtained by using HSV-1 inoculated non-CTC compound treated HFF monolayers.

RE strain HSV-1 = experiment: HSV-1 recovery from tear film, cornea and trigeminal ganglia of treated rabbits; assay type: in vivo, NZW rabbit
How it was run: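 NZW rabbits (1.5-2.0 kg) were inoculated bilaterally by intrastromal injection of 10^5 PFU HSV-1. Tear-film swabs on days 0, 3, 5 and 7 PI were cultured on HFF monolayers and scored for CPE. After sacrifice, corneal epithelial/stromal and trigeminal ganglion co-cultures were scored positive or negative for HSV CPE; negative ganglion cultures were blind-passaged twice.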

HFF cells = experiment: MTT assay for cell cytotoxicity; assay type: cell-based, human; details: stationary cells

Question: For `CC([O-])=CC(C)=NCCN=C(C)C=C(C)[O-].Cc1ncc[nH]1.Cc1ncc[nH]1.[Br-].[Co+3]` [Compound 96], which “toxicity at 1 mg/ml (comment)” value [1] is on record?
Answer: a lack of toxicity

Question: And the toxicity effects ([1]; Experiment 3 (Table 7), 24 h PI, 0.001 mg/ml)?
Answer: -

Question: And the toxicity effects ([1]; Experiment 3 (Table 7), 24 h PI, 0.01 mg/ml)?
Answer: -

Question: And the toxicity effects ([1]; Experiment 3 (Table 7), 24 h PI, 0.1 mg/ml)?
Answer: -

Question: And the toxicity effects ([1]; Experiment 3 (Table 7), 24 h PI, 1 mg/ml)?
Answer: -

Question: What about the toxicity effects ([1]; Experiment 3 (Table 7), 48 h PI, 0.001 mg/ml) of the same molecule?
Answer: -

Question: What about the toxicity effects ([1]; Experiment 3 (Table 7), 48 h PI, 0.01 mg/ml) of the same molecule?
Answer: -

Question: And the toxicity effects ([1]; Experiment 3 (Table 7), 48 h PI, 0.1 mg/ml)?
Answer: -

Question: And the toxicity effects ([1]; Experiment 3 (Table 7), 48 h PI, 1 mg/ml)?
Answer: -

Question: And the toxicity effects ([1]; Experiment 4 (Table 10), 24 h, 0.001 mg/ml)?
Answer: -

Question: And the toxicity effects ([1]; Experiment 4 (Table 10), 24 h, 0.01 mg/ml)?
Answer: -

Question: What about the toxicity effects ([1]; Experiment 4 (Table 10), 24 h, 0.5 mg/ml) of the same molecule?
Answer: -

Question: And the toxicity effects ([1]; Experiment 4 (Table 10), 24 h, 1 mg/ml)?
Answer: -

Question: What about the toxicity effects ([1]; Experiment 4 (Table 10), 48 h, 0.001 mg/ml) of the same molecule?
Answer: -

Question: And the toxicity effects ([1]; Experiment 4 (Table 10), 48 h, 0.01 mg/ml)?
Answer: -

Question: And the toxicity effects ([1]; Experiment 4 (Table 10), 48 h, 0.5 mg/ml)?
Answer: -

Question: What about the toxicity effects ([1]; Experiment 5 (Table 13), 24 h, 0.00 mg/ml (so in the source)) of the same molecule?
Answer: -

Question: What about the toxicity effects ([1]; Experiment 5 (Table 13), 24 h, 0.01 mg/ml) of the same molecule?
Answer: -

Question: What about the toxicity effects ([1]; Experiment 5 (Table 13), 24 h, 0.5 mg/ml) of the same molecule?
Answer: -

Question: And the toxicity effects ([1]; Experiment 5 (Table 13), 48 h, 0.00 mg/ml (so in the source))?
Answer: -

Question: And the toxicity effects ([1]; Experiment 5 (Table 13), 48 h, 0.01 mg/ml)?
Answer: -

Question: What about the toxicity effects ([1]; Experiment 5 (Table 13), 48 h, 0.5 mg/ml) of the same molecule?
Answer: -

Question: What about the toxicity effects ([1]; Experiment 5 (Table 13), 48 h, 5 mg/ml) of the same molecule?
Answer: +

Question: And the toxicity effects ([1]; Experiment 6 (Table 15), 48 h, 0.001 mg/ml)?
Answer: -

Question: What about the toxicity effects ([1]; Experiment 6 (Table 15), 48 h, 0.01 mg/ml) of the same molecule?
Answer: -

Question: And the toxicity effects ([1]; Experiment 6 (Table 15), 48 h, 1 mg/ml)?
Answer: -

Question: And the “toxicity to HFF monolayers (comment)” value ([1]; Experiment 6 comment, more pronounced at 0.5 and 0.1 mg/ml, cell rounding, detaching, granularity)?
Answer: toxicity observed

Question: What about the “virucidal efficacy (HSV-1 titer)” value (HSV-1 McKrae Strain [2]; Experiment 2 (Table 5), 24 h PI, 0.001 mg/ml) of the same molecule?
Answer: 10^4 PFU/ml

Question: And the “virucidal efficacy (HSV-1 titer)” value (HSV-1 McKrae Strain [2]; Experiment 2 (Table 5), 24 h PI, 1 mg/ml)?
Answer: 0 PFU/ml

Question: What about the “virucidal efficacy (HSV-1 titer)” value (HSV-1 McKrae Strain [2]; Experiment 2 (Table 5), 48 h PI, 0.01 mg/ml) of the same molecule?
Answer: 10^6 PFU/ml

Question: What about the “virucidal efficacy (HSV-1 titer)” value (HSV-1 McKrae Strain [2]; Experiment 2 (Table 5), 48 h PI, 1 mg/ml) of the same molecule?
Answer: 0 PFU/ml

Question: And the “effective virucidal concentration IC50” value (HSV-1 McKrae Strain [2]; Experiment 2 (Table 6))?
Answer: 100 µg/mL

Question: What about the “virucidal efficacy (HSV-1 titer)” value (HSV-1 McKrae Strain [2]; Experiment 3 (Table 8), 24 h PI, 0.001 mg/ml) of the same molecule?
Answer: 10^5 PFU/ml

Question: And the “virucidal efficacy (HSV-1 titer)” value (HSV-1 McKrae Strain [2]; Experiment 3 (Table 8), 24 h PI, 1 mg/ml)?
Answer: 0 PFU/ml

Question: What about the “virucidal efficacy (HSV-1 titer)” value (HSV-1 McKrae Strain [2]; Experiment 3 (Table 8), 48 h PI, 1 mg/ml) of the same molecule?
Answer: 10^5 PFU/ml

Question: What about the “virucidal efficacy (HSV-1 titer)” value (HSV-1 McKrae Strain [2]; Experiment 4 (Table 9), 24 h PI, Run 1, 5 mg/ml) of the same molecule?
Answer: 0 PFU/ml

Question: What about the “virucidal efficacy (HSV-1 titer)” value (HSV-1 McKrae Strain [2]; Experiment 4 (Table 9), 24 h PI, Run 2, 0.01 mg/ml) of the same molecule?
Answer: 10^4 PFU/ml

Question: And the “virucidal efficacy (HSV-1 titer)” value (HSV-1 McKrae Strain [2]; Experiment 4 (Table 9), 24 h PI, Run 2, 0.1 mg/ml)?
Answer: 10^2 PFU/ml

Question: And the “virucidal efficacy (HSV-1 titer)” value (HSV-1 McKrae Strain [2]; Experiment 4 (Table 9), 24 h PI, Run 2, 1 mg/ml)?
Answer: 0 PFU/ml

Question: What about the “virucidal efficacy (HSV-1 titer)” value (HSV-1 McKrae Strain [2]; Experiment 4 (Table 9), 24 h PI, Run 2, 5 mg/ml) of the same molecule?
Answer: 0 PFU/ml

Question: And the “effective virucidal concentration IC90” value (HSV-1 McKrae Strain [2]; Experiment 4 (Table 11))?
Answer: > 1000 µg/mL

Question: What about the “virucidal efficacy (HSV-1 titer)” value (HSV-1 McKrae Strain [2]; Experiment 5 (Table 12), 24 h PI, Run 1, 0.0001 mg/ml) of the same molecule?
Answer: 10^5 PFU/ml

Question: And the “virucidal efficacy (HSV-1 titer)” value (HSV-1 McKrae Strain [2]; Experiment 5 (Table 12), 24 h PI, Run 1, 0.1 mg/ml)?
Answer: 10^2 PFU/ml

Question: What about the “virucidal efficacy (HSV-1 titer)” value (HSV-1 McKrae Strain [2]; Experiment 5 (Table 12), 24 h PI, Run 1, 1 mg/ml) of the same molecule?
Answer: 0 PFU/ml

Question: What about the “virucidal efficacy (HSV-1 titer)” value (HSV-1 McKrae Strain [2]; Experiment 5 (Table 12), 24 h PI, Run 1, 5 mg/ml) of the same molecule?
Answer: 0 PFU/ml

Question: And the “virucidal efficacy (HSV-1 titer)” value (HSV-1 McKrae Strain [2]; Experiment 5 (Table 12), 24 h PI, Run 2, 0.0001 mg/ml)?
Answer: 10^3 PFU/ml

Question: And the “virucidal efficacy (HSV-1 titer)” value (HSV-1 McKrae Strain [2]; Experiment 5 (Table 12), 24 h PI, Run 2, 0.001 mg/ml)?
Answer: 10^3 PFU/ml

Question: And the “virucidal efficacy (HSV-1 titer)” value (HSV-1 McKrae Strain [2]; Experiment 5 (Table 12), 24 h PI, Run 2, 0.01 mg/ml)?
Answer: 10^3 PFU/ml

Question: And the “virucidal efficacy (HSV-1 titer)” value (HSV-1 McKrae Strain [2]; Experiment 5 (Table 12), 24 h PI, Run 2, 0.1 mg/ml)?
Answer: 0 PFU/ml

Question: And the “virucidal efficacy (HSV-1 titer)” value (HSV-1 McKrae Strain [2]; Experiment 5 (Table 12), 24 h PI, Run 2, 1 mg/ml)?
Answer: 0 PFU/ml

Question: And the “virucidal efficacy (HSV-1 titer)” value (HSV-1 McKrae Strain [2]; Experiment 5 (Table 12), 24 h PI, Run 2, 5 mg/ml)?
Answer: 0 PFU/ml

Question: And the “effective virucidal concentration IC50” value (HSV-1 McKrae Strain [2]; Experiment 5 (Table 14))?
Answer: 100 to 1000 µg/mL

Question: And the “effective virucidal concentration IC90” value (HSV-1 McKrae Strain [2]; Experiment 5 (Table 14))?
Answer: > 1000 µg/mL

Question: And the “virucidal efficacy (HSV-1 titer)” value (HSV-1 McKrae Strain [2]; Experiment 6 (Table 16), 24 h PI, 0.5 mg/ml)?
Answer: 0 PFU/ml

Question: What about the “virucidal efficacy (HSV-1 titer)” value (HSV-1 McKrae Strain [2]; Experiment 6 (Table 16), 24 h PI, 1 mg/ml) of the same molecule?
Answer: 0 PFU/ml

Question: What about the “virucidal efficacy (HSV-1 titer)” value (HSV-1 McKrae Strain [2]; Experiment 6 (Table 16), 24 h PI, 2 mg/ml) of the same molecule?
Answer: 0 PFU/ml

Question: And the “virucidal efficacy (HSV-1 titer)” value (HSV-1 McKrae Strain [2]; Experiment 6 (Table 16), 24 h PI, 5 mg/ml)?
Answer: 0 PFU/ml

Question: And the “effective virucidal concentration IC50” value (HSV-1 McKrae Strain [2]; Experiment 6 (Table 17))?
Answer: 100 µg/mL

Question: And the “efficacy in virucidal assay (comment)” value (HSV-1 McKrae Strain [2]; Experiment 6 comment, reduction in toxicity resulted in it)?
Answer: reduction in efficacy

Question: And the “antiviral efficacy (HSV-1 titer)” value (HSV-1 McKrae Strain [3]; 0.1 mg/ml)?
Answer: 10^2 PFU/ml

Question: And the “antiviral efficacy (HSV-1 titer)” value (HSV-1 McKrae Strain [3]; 2 mg/ml)?
Answer: 0 PFU/ml

Question: And the “antiviral efficacy (HSV-1 titer)” value (HSV-1 McKrae Strain [3]; 5 mg/ml)?
Answer: 0 PFU/ml

Question: What about the “effective virucidal concentration IC50” value (HSV-1 McKrae Strain [3]; Experiment 7 (Table 19), HSV-1) of the same molecule?
Answer: 500 to 1000 µg/mL

Question: What about the “HSV-1 recovery, corneal epithelium (C.E.)” value (RE strain HSV-1; Example 3 (Table 22)) of the same molecule?
Answer: 50%

Question: What about the “HSV-1 recovery, corneal stroma (C.S.)” value (RE strain HSV-1; Example 3 (Table 22)) of the same molecule?
Answer: 50%

Question: And the “HSV-1 recovery, trigeminal ganglia (T.G.)” value (RE strain HSV-1; Example 3 (Table 22))?
Answer: 50%

Question: What about the “HSV-1 recovery, tear film (positive samples of total)” value (“HSV-1 recovery, tear film” for short) (RE strain HSV-1; Example 3 (Table 22), day 3 PI) of the same molecule?
Answer: 100%

Question: What about the “HSV-1 recovery, tear film” value (RE strain HSV-1; Example 3 (Table 22), day 5 PI) of the same molecule?
Answer: 100%

Question: And the “HSV-1 recovery, tear film” value (RE strain HSV-1; Example 3 (Table 22), day 7 PI)?
Answer: 80%

Question: What about the “HSV-1 recovery, tear film” value (RE strain HSV-1; Example 3 (Table 22), day 9 PI) of the same molecule?
Answer: 0%

Question: And the “recovery of HSV-1 in tear film” value (RE strain HSV-1; Example 4)?
Answer: reduced the recovery of HSV-1 in tear film

Question: What about the “HSV-1 recovery, corneal stroma” value (RE strain HSV-1; Example 5 (Table 23)) of the same molecule?
Answer: 70%

Question: And the “HSV-1 recovery (positive cultures per total)” value (RE strain HSV-1; Example 5 (Table 23), column 1)?
Answer: 0%

Question: What about the “HSV-1 recovery (positive cultures per total)” value (RE strain HSV-1; Example 5 (Table 23), column 3) of the same molecule?
Answer: 100%

Question: And the “HSV-1 recovery (positive cultures per total)” value (RE strain HSV-1; Example 5 (Table 23), column 5)?
Answer: 90%

Question: What about the “HSV-1 recovery (positive cultures per total)” value (RE strain HSV-1; Example 5 (Table 23), column 7) of the same molecule?
Answer: 70%

Question: And the “toxicity IC50, MTT toxicity” value (HFF cells)?
Answer: > 74 MCG/ML
